Data from ChEMBL document CHEMBL3885861, “Open TG-GATES”.

Species on record: Rattus norvegicus
Assay: Open TG-GATES - Regimen: Single
Assay type: toxicity, organism-based, Sprague-Dawley
Design: regimen Single, gender Male, age 6 weeks
Conditions: in vivo, po, 0 mg/kg, route gavage, dose level Control; for APTT / Bas / Eos / Fbg / Hb / Ht / Lym / MCH / MCHC / MCV / Mono / Neu / PT / Plat / RBC / Ret / WBC: tissue Blood; for KIDNEY_L / KIDNEY_R / KIDNEY_TOTAL: tissue Kidney; for LIVER: tissue Liver

## CC(=O)N1CCN(c2ccc(OCC3COC(Cn4ccnc4)(c4ccc(Cl)cc4Cl)O3)cc2)CC1 (stereo not given) [KETOCONAZOLE]
3 h
  TERMINAL_BW: 204 g
  APTT: 20.5 s
  Bas: 0%
  Eos: 0.8%
  Fbg: 282.4 mg/dL
  Hb: 12.8 g/dL
  Ht: 38.4%
  Lym: 76.4%
  MCH: 21.5 pg
  MCHC: 33.4%
  MCV: 64.4 fL
  Mono: 1.6%
  Neu: 19.8%
  PT: 16.9 s
  Plat: 117 x10_4/uL
  RBC: 596.2 x10_4/ul
  Ret: 8.8%
  WBC: 73.4 x10_2/uL
  KIDNEY_L: 0.9 g
  KIDNEY_R: 0.9 g
  KIDNEY_TOTAL: 1.9 g
  LIVER: 9.8 g
3 h, tissue Plasma
  ALP: 1856.6 IU/L
  AST: 76.2 IU/L
  BUN: 13.2 mg/dL
  CRE: 0.2 mg/dL
  Ca: 11 mg/dL
  Cl: 104.8 meq/L
  DBIL: 0.004 mg/dL
  GLC: 175.4 mg/dL
  IP: 7.9 mg/dL
  LDH: 167.6 IU/L
  Na: 141.8 meq/L
  PL: 135 mg/dL
  RALB: 2.9 g/dL
  TBIL: 0.016 mg/dL
  TC: 74.8 mg/dL
  TG: 63.2 mg/dL
  TP: 5.4 g/dL
  gamma-GTP: 1 IU/L
6 h
  TERMINAL_BW: 204.2 g
  APTT: 21.3 s
  Bas: 0%
  Eos: 0.8%
  Fbg: 293.6 mg/dL
  Hb: 13.2 g/dL
  Ht: 39.7%
  Lym: 83.2%
  MCH: 21.5 pg
  MCHC: 33.2%
  MCV: 64.7 fL
  Mono: 1.8%
  Neu: 13.4%
  PT: 16.9 s
  Plat: 122.1 x10_4/uL
  RBC: 613.4 x10_4/ul
  Ret: 8.4%
  WBC: 78.2 x10_2/uL
  KIDNEY_L: 1 g
  KIDNEY_R: 1 g
  KIDNEY_TOTAL: 1.9 g
  LIVER: 9.1 g
6 h, tissue Plasma
  ALP: 1433 IU/L
  AST: 71 IU/L
  BUN: 9.6 mg/dL
  CRE: 0.2 mg/dL
  Ca: 10.8 mg/dL
  Cl: 105.6 meq/L
  DBIL: 0 mg/dL
  GLC: 176.8 mg/dL
  IP: 8.4 mg/dL
  LDH: 197.4 IU/L
  Na: 141.2 meq/L
  PL: 124.2 mg/dL
  RALB: 2.9 g/dL
  TBIL: 0.022 mg/dL
  TC: 67.6 mg/dL
  TG: 47.6 mg/dL
  TP: 5.4 g/dL
  gamma-GTP: 1 IU/L
9 h
  TERMINAL_BW: 201.8 g
  APTT: 21.3 s
  Bas: 0%
  Eos: 1.2%
  Fbg: 294.4 mg/dL
  Hb: 13 g/dL
  Ht: 38.9%
  Lym: 75%
  MCH: 21.1 pg
  MCHC: 33.3%
  MCV: 63.3 fL
  Mono: 1.8%
  Neu: 21.4%
  PT: 16.4 s
  Plat: 138.7 x10_4/uL
  RBC: 615.6 x10_4/ul
  Ret: 7.7%
  WBC: 69.1 x10_2/uL
  KIDNEY_L: 1 g
  KIDNEY_R: 1 g
  KIDNEY_TOTAL: 1.9 g
  LIVER: 8.6 g
9 h, tissue Plasma
  ALP: 1580.4 IU/L
  AST: 75 IU/L
  BUN: 10.2 mg/dL
  CRE: 0.2 mg/dL
  Ca: 10.4 mg/dL
  Cl: 106 meq/L
  DBIL: 0.008 mg/dL
  GLC: 180.4 mg/dL
  IP: 9.5 mg/dL
  LDH: 227.2 IU/L
  Na: 142.2 meq/L
  PL: 125.6 mg/dL
  RALB: 3.1 g/dL
  TBIL: 0.026 mg/dL
  TC: 67.2 mg/dL
  TG: 52.6 mg/dL
  TP: 5.5 g/dL
  gamma-GTP: 1 IU/L
24 h
  TERMINAL_BW: 213.9 g
  APTT: 19.8 s
  Bas: 0%
  Eos: 0.8%
  Fbg: 307.2 mg/dL
  Hb: 13.3 g/dL
  Ht: 38.9%
  Lym: 77.6%
  MCH: 21.8 pg
  MCHC: 34.2%
  MCV: 63.9 fL
  Mono: 2%
  Neu: 19%
  PT: 16.7 s
  Plat: 117.4 x10_4/uL
  RBC: 609 x10_4/ul
  Ret: 7.5%
  WBC: 70.3 x10_2/uL
  KIDNEY_L: 1 g
  KIDNEY_R: 1 g
  KIDNEY_TOTAL: 2 g
  LIVER: 10.4 g
24 h, tissue Plasma
  ALP: 1980.8 IU/L
  ALT: 44 IU/L
  AST: 73.2 IU/L
  BUN: 16.4 mg/dL
  CRE: 0.2 mg/dL
  Ca: 10.7 mg/dL
  Cl: 107.2 meq/L
  DBIL: 0 mg/dL
  GLC: 185.6 mg/dL
  IP: 6.5 mg/dL
  LDH: 211.2 IU/L
  Na: 142.2 meq/L
  PL: 147 mg/dL
  RALB: 3.1 g/dL
  TBIL: 0.002 mg/dL
  TC: 76.6 mg/dL
  TG: 107.6 mg/dL
  TP: 5.6 g/dL
